Results taken from patent US20040097435A1, “Method of treating parasitic infection” (Pfizer Inc, priority 2000, published 2004).
Like-named read-outs stand apart in the source and are kept apart here.

Columns and labels:
[1] = 6 mg/kg topical at monthly intervals during pregnancy and post partum, female cats
[2] = 6 mg/kg topical at monthly intervals during pregnancy and post-partum, female dogs
Toxocara cati = conditions: post partum day 49
Method: (§1) Thirty-eight adult females were allocated randomly to one of two treatments: placebo (negative control, 19 animals), or selamectin (19 animals). The selamectin, was formulated as: […]
(§2) Doses providing 6 mg/kg of selamectin were administered topically in a single spot on the skin of each female's back at the base of the neck in front of the shoulder blades on days 0 and 30 to individually-housed females and to females group-housed for mating on days 0, 30, 60 and 90 as required until kittening. All females were treated on post partum days 10 and 38. Treatments were not administered to kittens. […]. Study day 0 was defined individually for each adult female as the day on which the first treatment with either placebo or selamectin was administered and post partum day 1 was defined as the day following the day of delivery of the last kitten in the litter.
Each adult female was inoculated once with approximately 1000 embryonated T. cati ova, per os, between 150 and 31 days prior to commencing the study and again between 5 and 21 days before kittening.
On post partum day 49, each kitten was euthanased, its gastrointestinal tract was removed and intestinal larvae (L4) and adult T. cati were enumerated.

Toxocara canis [3] = conditions: 6 mg/kg topical to dam
Method: (§3) Twenty-one adult females were allocated randomly to one of two treatments: placebo (negative control, 11 animals), or selamectin (10 animals). The selamectin, was formulated as: […]
(§4) Doses providing 6 mg/kg of selamectin were administered topically approximately 40 days and 10 days pre-partum and 10 days and 38 days post-partum in a single spot on the skin of each female's back at the base of the neck in front of the shoulder blades. Treatments were not administered to puppies. Post-partum day 1 was defined individually for each adult female as the day following the day of delivery of the last puppy in the litter.
(§5) Following observations of signs of pro-oestrus, the females were moved into randomly allocated carpeted pens in a building where the environment was suitable for the rapid completion of the flea reproductive cycle.
On post-partum day 45, each puppy was euthanised, its gastro-intestinal tract was removed and intestinal larval (L4) and adult T. canis were enumerated.

Ctenocephalides felis [4] = test system: Ctenocephalides felis
Method: as §3, §4, §5
(§6) Each adult female was infested with 100 viable unfed adult C. felis approximately 60 days and 46 days pre-partum, and with 10 viable unfed adult fleas approximately 39, 33, 26, 19, 14 and 5 days pre-partum; an additional infestation was performed 7 days later if the female had not whelped. Each lactating female was also infested with 10 fleas on post-partum days 6, 15, 21, 28, 34 and 42. Comb counts of the number of viable adult fleas present on each female were made on approximately pre-partum days 41 and 11, and on postpartum days 9, 37 and 45. Comb counts of the fleas present on each puppy were performed on post-partum days 15, 24, 34, 42 and 45. After counting, up to 50 fleas per pregnant/lactating female and up to five fleas per puppy were replaced on each dog. For welfare reasons, if any dog was scratching or grooming excessively, additional unscheduled comb counts were performed on that dog and if necessary, the carpet was partially or entirely replaced to reduce the environmental flea challenge. Faecal egg counts for T. canis were performed for pregnant/lactating females on approximately pre-partum day 2 and on post-partum days 9, 17, 24 and 45, and for puppies on post-partum days 24 and 34.

Toxocara canis [5] = conditions: 6 mg/kg topical to dam; for geometric mean faecal egg count: puppies born to treated females
Method: as §3, §4, §5, §6

Ctenocephalides felis [6] = test system: Ctenocephalides felis; remark: listed apart in the source
Method: as §1, §2

[7] = test system: ectoparasites such as fleas; conditions: companion animals; cited from earlier work
intestinal nematode = conditions: administered to pregnant bitch from pregnancy past parturition; Veterinary Parasitology, 1999, 85, 305; cited from earlier work
[8] = kittens at necropsy, 6 mg/kg topical to dam

| Molecule | safety of treatment [1] | safety of treatment [2] | geometric mean L4 T. cati count (Toxocara cati; [8]) | geometric mean adult T. cati count (Toxocara cati; [8]) | reduction in mean adult T. cati count compared with kittens born to placebo-treated females (Toxocara cati) | reduction in mean fourth stage larvae (L4) T. cati count compared with kittens born to placebo-treated females (Toxocara cati) | reduction in mean adult T. canis count compared with puppies born to placebo-treated females (Toxocara canis [3]; necropsy post partum day 45) | geometric mean adult T. canis worm count (Toxocara canis [3]; puppies at necropsy, post-partum day 45) | reduction in mean flea comb counts compared with puppies born to placebo-treated females (Ctenocephalides felis [4]; puppies, all counting days (post-partum days 15, 24, 34, 42 and 45)) | geometric mean flea comb count (Ctenocephalides felis [4]; puppies, all counting days (post-partum days 15, 24, 34, 42 and 45), 6 mg/kg topical to dam) | females or their puppies requiring additional flea control measures (Ctenocephalides felis [4]; to maintain flea burdens within acceptable limits) | reduction in mean faecal egg count compared with puppies born to placebo-treated females (Toxocara canis [5]; post-partum day 24) | reduction in mean faecal egg count compared with puppies born to placebo-treated females (Toxocara canis [5]; post-partum day 34) | geometric mean faecal egg count (Toxocara canis [5]; post-partum day 24) | geometric mean faecal egg count (Toxocara canis [5]; post-partum day 34) | females or their kittens requiring additional flea control measures (Ctenocephalides felis [6]; after the first treatment on day 0, to maintain flea burdens within acceptable limits) | reduction in mean flea comb counts compared with kittens born to placebo-treated females (Ctenocephalides felis [6]; kittens, all counting days (post partum days 15, 24, 34, 42 and 49)) | geometric mean flea comb count (Ctenocephalides felis [6]; kittens, all counting days (post partum days 15, 24, 34, 42 and 49), 6 mg/kg topical to dam) | activity against ectoparasites such as fleas [7] | prevention of intestinal nematode infections in pups (intestinal nematode) |
| --- | --- | --- | --- | --- | --- | --- | --- | --- | --- | --- | --- | --- | --- | --- | --- | --- | --- | --- | --- | --- |
| CO[C@H]1C[C@H](O[C@@H]2/C(C)=C/C[C@@H]3C[C@@H](C[C@]4(CC[C@H](C)[C@@H](C5CCCCC5)O4)O3)OC(=O)[C@@H]3C=C(C)/C(=N/O)[C@H]4OC/C(=C\C=C\[C@@H]2C)[C@]43O)O[C@@H](C)[C@@H]1O [selamectin] | safe | safe | 0.0 | 0.0 | 100% | 100% | 98.2% | 0.1 | 100.0% | 0 | None | 96.8% | 96.1% | 0.8 epg | 2.1 epg | none | 100% | zero |  |  |
| CO[C@H]1C[C@H](O[C@H]2[C@H](C)O[C@@H](O[C@@H]3/C(C)=C/C[C@@H]4C[C@@H](C[C@]5(C=C[C@H](C)[C@@H](C6CCCCC6)O5)O4)OC(=O)[C@@H]4C=C(C)[C@@H](O)[C@H]5OC/C(=C\C=C\[C@@H]3C)[C@]54O)C[C@@H]2OC)O[C@@H](C)[C@@H]1O [doramectin] |  |  |  |  |  |  |  |  |  |  |  |  |  |  |  |  |  |  | poor activity |  |
| ivermectin |  |  |  |  |  |  |  |  |  |  |  |  |  |  |  |  |  |  | poor activity | can prevent intestinal nematode infections in pups |
